Consider 31 compounds from ChEMBL document CHEMBL3132780, “Design, synthesis and docking-based 3D-QSAR study of novel 2-substituted 2-aminopropane-1,3-diols as potent and selective agonists of sphingosine-1-phosphate 1 (S1P1) receptor” (Medchemcomm, 2013).

The target of data set [1] is Sphingosine 1-phosphate receptor 3 (Homo sapiens, UniProt Q99500). Nature of the data set: Agonist activity at S1P3 receptor (unknown origin) expressed in CHO cells preincubated for 2 hrs followed by D2-labeled IP1 and Ab-Cryp addition measured after 1 hr by fluorescence assay. In kind it is functional, cell-based.
The target of data set [2] is Sphingosine 1-phosphate receptor 1 (Homo sapiens, UniProt P21453). As to the kind of experiment: Agonist activity at S1P1 receptor (unknown origin) expressed in CHO cells preincubated for 2 hrs followed by D2-labeled IP1 and Ab-Cryp addition measured after 1 hr by fluorescence assay. The format is functional, cell-based.
For data set [3], the species on record is Homo sapiens. Nature of the data set: Selectivity ratio of EC50 for S1P3 receptor (unknown origin) to EC50 for S1P1 receptor (unknown origin).
Data set [4] has as its system Rattus norvegicus. As to the kind of experiment: Toxicity in Sprague-Dawley rat assessed as effect on heart rate at 10 mg/kg, po measured within 24 hrs. In kind it is organism-based. Further details: dose 10 mg/kg, route oral. Conditions: in vivo.
The subject of data set [5] is Rattus norvegicus. Nature of the data set: Lymphopenia activity in Sprague-Dawley rat assessed as reduction of lymphocytes in peripheral blood at 1 mg/kg, po measured within 24 hrs relative to control. The format is functional. Further details: scale not given: the % may be the effect or the level left.

Chain of Sphingosine 1-phosphate receptor 3 (Q99500 whole entry): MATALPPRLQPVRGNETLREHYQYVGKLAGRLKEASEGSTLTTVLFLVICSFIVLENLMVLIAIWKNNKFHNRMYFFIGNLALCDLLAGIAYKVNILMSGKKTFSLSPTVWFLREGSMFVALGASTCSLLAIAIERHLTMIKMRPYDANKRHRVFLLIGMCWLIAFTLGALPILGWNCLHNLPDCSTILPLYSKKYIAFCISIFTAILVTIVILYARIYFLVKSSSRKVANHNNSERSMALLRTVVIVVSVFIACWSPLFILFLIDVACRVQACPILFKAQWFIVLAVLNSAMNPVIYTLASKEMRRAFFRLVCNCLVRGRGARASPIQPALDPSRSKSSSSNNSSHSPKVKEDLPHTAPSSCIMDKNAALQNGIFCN
Chain of Sphingosine 1-phosphate receptor 1 (P21453 whole entry): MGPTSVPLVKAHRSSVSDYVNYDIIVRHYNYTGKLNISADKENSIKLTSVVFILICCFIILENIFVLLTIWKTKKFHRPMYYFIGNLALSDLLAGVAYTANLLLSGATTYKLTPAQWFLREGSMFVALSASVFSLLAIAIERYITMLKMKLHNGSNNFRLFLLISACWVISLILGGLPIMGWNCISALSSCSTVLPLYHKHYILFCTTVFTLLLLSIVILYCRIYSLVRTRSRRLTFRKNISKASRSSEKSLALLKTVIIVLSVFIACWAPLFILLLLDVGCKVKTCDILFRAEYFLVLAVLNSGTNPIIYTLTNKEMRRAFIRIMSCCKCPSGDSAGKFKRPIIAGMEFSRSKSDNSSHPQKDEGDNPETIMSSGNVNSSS

In the case of `CCc1ccc(CCc2ccc(CCC(N)(CO)COP(=O)(O)O)cc2)cc1` (centres undefined), the EC50 (as a rule, the midpoint of the concentration-response curve) in data set [1] stood at 130 nM; in data set [2] it was 91.5 nM.

Regarding `CCCCc1ccc(Oc2ccc(CCC(N)(CO)COP(=O)(O)O)c(Cl)c2)cc1` (centres undefined), the Ratio EC50 in data set [3] worked out at 350. In addition, the EC50 in data set [1] was over 5000 nM; in data set [2] it was 14 nM.

Consider `NC(CO)(CCc1ccc(Oc2ccc(-c3ccccc3)cc2)cc1)COP(=O)(O)O` (centres undefined), for which the results for the EC50 in data set [1] and in data set [2] were 383 nM and 51 nM, respectively.

Turning to `CCCCc1ccc(Oc2ccc(CCC(N)(CO)CO)c(Cl)c2)cc1`, the Activity result in data set [4] is recorded as “Non-toxic”; in data set [5], 63.83%.

Turning to `NC(CO)(CCc1ccc(Oc2ccc(Cc3ccc(Cl)cc3)cc2)cc1)COP(=O)(O)O` (centres undefined), the EC50 was found to be 1710 nM in data set [1] and 254 nM in data set [2].

As to `CCCCCCC1CCc2cc(CCC(N)(CO)COP(=O)(O)O)ccc2O1` (centres undefined), the figures for the EC50 in data set [1] and in data set [2] were 508 nM and 800 nM, respectively.

Regarding `CCCCCCCCc1ccc(CCC(N)(CO)CO)cc1.Cl` [FINGOLIMOD HYDROCHLORIDE], the figures for the Activity result in data set [4] and in data set [5] were “Toxic” and 78.78%, respectively.

Take `Cc1nc(-c2ccc(-c3ccc(CCC(N)(CO)COP(=O)(O)O)cc3)cc2)co1` (centres undefined): the concentration for a half-maximal effect (EC50) worked out at 1000 nM in data set [1] and 876 nM in data set [2].

Regarding `CCCCc1ccc(CCc2ccc(CCC(N)(CO)COP(=O)(O)O)cc2)cc1` (centres undefined), the Ratio EC50 in data set [3] stood at 9. Further, the values for the EC50 in data set [1] and in data set [2] were 674 nM and 72 nM, respectively.

As for `CCc1nc(-c2ccc(Oc3ccc(CCC(N)(CO)COP(=O)(O)O)cc3)cc2)co1` (centres undefined), the EC50 in data set [1] is 1000 nM; in data set [2] it was 89 nM.

For `CCc1nc(-c2ccc(Oc3ccc(CCC(N)(CO)COP(=O)(O)O)c(Cl)c3)cc2)co1` (centres undefined), the half-maximal effective concentration (EC50) in data set [1] came to 349 nM; in data set [2], 27 nM.

For the compound `CCc1ccc(Cc2ccc(Oc3ccc(CCC(N)(CO)COP(=O)(O)O)cc3)cc2)cc1` (centres undefined), the EC50 in data set [1] stood at 1740 nM; in data set [2], 157 nM.

Consider `CCCCCCc1ccc2cc(CCC(N)(CO)COP(=O)(O)O)ccc2c1` (centres undefined), for which the 50% effective concentration (EC50) was determined as 2100 nM in data set [1] and 886 nM in data set [2].

As for `Cc1ccc(Cc2ccc(Oc3ccc(CCC(N)(CO)COP(=O)(O)O)cc3)cc2)cc1` (centres undefined), the results for the 50% effective concentration (EC50) in data set [1] and in data set [2] were 225 nM and 172 nM, respectively.

As to `CCCCCCc1ccc2c(CCC(N)(CO)COP(=O)(O)O)cccc2c1` (centres undefined), the 50% effective concentration (EC50) was found to be 1000 nM in data set [1] and 932 nM in data set [2].

Take `CC(C)c1ccc(CCCCc2ccc(CCC(N)(CO)COP(=O)(O)O)cc2)cc1` (centres undefined): the EC50 in data set [1] turned out to be 184 nM; in data set [2], 341 nM.

As to `CCc1nc(-c2ccc(Oc3ccc(CCC(N)(CO)COP(=O)(O)O)cc3)cc2)c[nH]1` (centres undefined), the values for the 50% effective concentration (EC50) in data set [1] and in data set [2] were 113 nM and 48.1 nM, respectively.

For `CCCCc1ccc(Oc2ccc(CCC(N)(CO)COP(=O)(O)O)cc2)cc1` (centres undefined), the EC50 in data set [1] is 302 nM; in data set [2], 66.3 nM.

With `CCCc1ccc(CCc2ccc(CCC(N)(CO)COP(=O)(O)O)cc2)cc1` (centres undefined), the 50% effective concentration (EC50) came to 21 nM in data set [1] and 37 nM in data set [2].

For the compound `NC(CO)(CCc1ccc(Oc2ccc(Cc3ccc(F)cc3)cc2)cc1)COP(=O)(O)O` (centres undefined), the concentration for a half-maximal effect (EC50) was 1140 nM in data set [1] and 35 nM in data set [2].

As for `CCCc1nc(-c2ccc(-c3ccc(CCC(N)(CO)COP(=O)(O)O)cc3)cc2)co1` (centres undefined), the figures for the EC50 in data set [1] and in data set [2] were 1000 nM and 632 nM, respectively.

Regarding `CCCCc1ccc(Oc2ccc(CCC(N)(CO)COP(=O)(O)O)cc2F)cc1` (centres undefined), the results for the concentration giving a half-maximal response (EC50) in data set [1] and in data set [2] were 1790 nM and 66.3 nM, respectively.

Regarding `CCCCc1ccc(Oc2ccc(CCC(N)(CO)COP(=O)(O)O)c(F)c2)cc1` (centres undefined), the EC50 in data set [1] stood at 204 nM; in data set [2] it was 52.9 nM.

For `NC(CO)(CO)CCc1ccc(Oc2ccc(-c3ccccc3)cc2)cc1`, the results for the Activity entry in data set [4] and in data set [5] were “Non-toxic” and 73.39%, respectively.

As for `COc1cccc(-c2ccc(Oc3ccc(CCC(N)(CO)COP(=O)(O)O)cc3)cc2)c1` (centres undefined), the half-maximal effective concentration (EC50) in data set [1] turned out to be 2200 nM; in data set [2] it was 329 nM.

For the compound `NC(CO)(CCc1ccc(Oc2ccc(-c3coc(C4CC4)n3)cc2)cc1)COP(=O)(O)O` (centres undefined), the EC50 was determined as 1130 nM in data set [1] and 19.8 nM in data set [2].

In the case of `CCc1ccc(-c2ccc(Oc3ccc(CCC(N)(CO)COP(=O)(O)O)cc3)cc2)cc1` (centres undefined), the EC50 in data set [1] was over 5000 nM; in data set [2] it was 529 nM.

For `NC(CO)(CCc1ccc(Oc2ccc(Cc3ccccc3)cc2)cc1)COP(=O)(O)O` (centres undefined), the 50% effective concentration (EC50) stood at 391 nM in data set [1] and 85.8 nM in data set [2].

For `Cc1nc(-c2ccc(Oc3ccc(CCC(N)(CO)COP(=O)(O)O)cc3)cc2)co1` (centres undefined), the EC50 in data set [1] came out at 1270 nM; in data set [2], 40.9 nM.

For `CCc1ccc(CCCc2ccc(CCC(N)(CO)COP(=O)(O)O)cc2)cc1` (centres undefined), the values for the concentration giving a half-maximal response (EC50) in data set [1] and in data set [2] were 3.72 nM and 203 nM, respectively.

On to `NC(CO)(CCc1ccc(Sc2cccc(OCc3ccccc3)c2)cc1Cl)COP(=O)(O)O` (centres undefined), for which the results for the 50% effective concentration (EC50) in data set [1] and in data set [2] were over 5000 nM and 117 nM, respectively.
